According to patent US9630947B2, “Therapeutic compounds and related methods of use” (OTSUKA PHARMACEUTICAL CO., LTD., priority 2009, dated 2017):

Target: T1, purified STEP46 enzyme (Homo sapiens, UniProt P54829)
T1 sequence (P54829 1-565): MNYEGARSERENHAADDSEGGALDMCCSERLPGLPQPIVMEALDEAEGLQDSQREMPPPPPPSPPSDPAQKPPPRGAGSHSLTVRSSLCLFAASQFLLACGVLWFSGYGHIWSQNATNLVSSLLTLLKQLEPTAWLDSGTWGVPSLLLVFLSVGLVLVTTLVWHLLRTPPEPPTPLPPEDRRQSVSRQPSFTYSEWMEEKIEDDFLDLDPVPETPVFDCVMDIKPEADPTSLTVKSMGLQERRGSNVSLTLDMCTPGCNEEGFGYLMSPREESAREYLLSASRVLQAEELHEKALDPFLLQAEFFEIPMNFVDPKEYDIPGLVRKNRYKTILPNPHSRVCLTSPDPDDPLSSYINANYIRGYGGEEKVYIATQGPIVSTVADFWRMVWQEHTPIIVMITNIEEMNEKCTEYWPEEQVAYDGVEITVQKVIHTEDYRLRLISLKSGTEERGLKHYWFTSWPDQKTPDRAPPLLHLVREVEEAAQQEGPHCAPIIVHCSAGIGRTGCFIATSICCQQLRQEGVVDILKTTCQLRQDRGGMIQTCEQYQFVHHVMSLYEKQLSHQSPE
Experiment: STEP46 biochemical assay (DiFMUP fluorescence phosphatase assay)
Settings: DiFMUP 10 μM, read-out: STEP IC50
Summary of the method: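 Compounds preincubated 30 min at room temperature with purified STEP46 (1 ng/well) in 50 mM Hepes, 1 mM DTT, 0.02% Brij35, then 10 μM DiFMUP (final) added for 90 min at 27 °C; 2% DMSO, fluorescence at 360/460 nm. IC50 from four-parameter fit of % inhibition; activators reported as negative % inhibition at 25, 50 and 100 uM.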

IC50 [nM] | SMILES
1000 to 10000 | CNc1nc(-c2cccnc2)nc2ccc(-c3cc(OC)ccc3OC)cc12 [Compound 1356]
1000 to 10000 | CNc1nc(-c2cccnc2)nc2c(C)cc(-c3ccccc3C#N)cc12 [Compound 1284]
1000 to 10000 | CNc1nc(-c2cccnc2)nc2cc(-c3ccc(Cl)cc3)ccc12 [Compound 1354]
1000 to 10000 | COc1ccc2nc(-c3cccnc3)nc(Nc3nc(-c4cc(F)cc(F)c4)cs3)c2c1 [Compound 457]
< 1000 | Fc1cccc(-c2ccc3c(Nc4ccc(F)c(Cl)c4)nc(-c4cccnc4)nc3c2)c1 [Compound 688]
< 1000 | NC(=O)c1ccccc1Nc1nc(-c2cccnc2)nc2cc(-c3cc(F)cc(F)c3)ccc12 [Compound 707]
1000 to 10000 | Cc1cccc(CNc2nc(-c3cccnc3)nc3cc(-c4cc(F)ccc4F)ccc23)n1 [Compound 1430]
1000 to 10000 | Fc1ccc(-c2ccc3nc(-c4cccnc4)nc(Nc4ccc(F)c(Cl)c4)c3c2)cc1 [Compound 638]
1000 to 10000 | CNc1nc(-c2cccnc2)nc2cc(C)c(-c3ccc(F)cc3)cc12 [Compound 1414]
1000 to 10000 | CNc1nc(-c2cccnc2)nc2cc(-c3ccc(C)cc3)ccc12 [Compound 1362]
1000 to 10000 | CNc1nc(-c2cccnc2)nc2cc(-c3ccc(C#N)cc3)c(C)cc12 [Compound 1410]
< 1000 | Cc1cccc(-c2ccc3c(Nc4ccc(F)c(Cl)c4)nc(-c4cccnc4)nc3c2)c1 [Compound 696]
< 1000 | CNc1nc(-c2cccnc2)nc2ccc(-c3ccc(C(C)=O)cc3OC)cc12 [Compound 1382]
1000 to 10000 | CNc1nc(-c2cccnc2)nc2ccc(-c3ccc(F)c(F)c3F)cc12 [Compound 1375]
< 1000 | Fc1cc(F)cc(-c2ccc3c(Nc4ccc(F)c(Cl)c4)nc(-c4cccnc4)nc3c2)c1 [Compound 675]
> 10000 | CNc1nc(-c2cccnc2)nc2cc(-c3ccccc3OC)c(C)cc12 [Compound 1411]
1000 to 10000 | CNc1nc(-c2cccnc2)nc2ccc(-c3csc4ccccc34)cc12 [Compound 1339]
1000 to 10000 | CNc1nc(-c2cccnc2)nc2cc(-c3cc(F)cc(F)c3)c(C)cc12 [Compound 1408]
1000 to 10000 | CNc1nc(-c2cccnc2)nc2cc(-c3cc(F)ccc3F)ccc12 [Compound 1601]
1000 to 10000 | CNc1nc(-c2cccnc2)nc2cc(-c3ccccc3C#N)ccc12 [Compound 1363]
1000 to 10000 | CNc1nc(-c2cccnc2)nc2ccc(-c3cc(OC)cc(OC)c3)cc12 [Compound 1357]
< 1000 | COc1cc(Cl)cc(-c2ccc3nc(-c4cccnc4)nc(Nc4ccc(F)c(Cl)c4)c3c2)c1 [Compound 663]
> 10000 | CNc1nc(-c2cccnc2)nc2cc(-c3cccc(C)c3)ccc12 [Compound 1361]
1000 to 10000 | CNc1nc(-c2cccnc2)nc2cc(-c3cccc(C#N)c3)ccc12 [Compound 1364]
1000 to 10000 | CNc1nc(-c2cccnc2)nc2cc(-c3ccc(F)c(F)c3)c(C)cc12 [Compound 1407]
1000 to 10000 | Nc1nc(-c2cccnc2)nc2cc(-c3cc(F)ccc3F)ccc12 [Compound 1395]
1000 to 10000 | CNc1nc(-c2cccnc2)nc2c(C)c(-c3ccccc3F)ccc12 [Compound 1446]
> 10000 | CNc1nc(-c2cccnc2)nc2c(C)c(-c3ccc(F)cc3)ccc12 [Compound 1447]

The remaining lines, values behind:

SMILES | IC50 [nM]
COc1ccc2nc(-c3cccnc3)nc(Nc3ccc4c(c3)CCC4)c2c1 [Compound 306] | > 10000
Nc1nc(-c2cccnc2)nc2ccc(-c3ccccc3Cl)cc12 [Compound 1328] | > 10000
Clc1cc(Cl)cc(Nc2nc(-c3cnccn3)nc3ccc(Cl)cc23)c1 [Compound 1161] | 1000 to 10000
Clc1cc(Cl)cc(Nc2nc(-c3cnccn3)nc3ccccc23)c1 [Compound 1222] | 1000 to 10000
Cc1cccc2c(Nc3cccc(OC(F)F)c3)nc(-c3ccnnc3)nc12 [Compound 1168] | 1000 to 10000
FC(F)Oc1cccc(Nc2nc(-c3ccncn3)nc3ccccc23)c1 [Compound 1208] | > 10000
COc1ccc2nc(-c3cccnc3)nc(Nc3nc(-c4ccc(Br)cc4)cs3)c2c1 [Compound 415] | 1000 to 10000
Fc1cccc(-c2ccc3nc(-c4cccnc4)nc(NC4CCCCC4)c3c2)c1F [Compound 1516] | > 10000
CN(C)c1nc(-c2cccnc2)nc2ccc(-c3ccccc3C#N)cc12 [Compound 1337] | 1000 to 10000
COc1ccc2nc(-c3cccnc3)nc(Nc3nc(-c4ccccc4)c(C(N)=O)s3)c2c1 [Compound 1125] | 1000 to 10000
CN(C)c1ccc2nc(-c3ccnnc3)nc(Nc3ccccc3C(N)=O)c2c1 [Compound 1151] | 1000 to 10000
COc1ccc2nc(-c3cnccn3)nc(Nc3ccc(F)c(F)c3)c2c1 [Compound 1192] | 1000 to 10000
FC(F)Oc1cc(Cl)cc(Nc2nc(-c3cccnc3)nc3ccccc23)c1 [Compound 1213] | 1000 to 10000
NC(=O)c1ccccc1Nc1nc(-c2cccnc2)nc2cc(-c3cccc(F)c3)ccc12 [Compound 700] | < 1000
N#Cc1cccc(Nc2nc(-c3cnccn3)nc3ccc(Cl)cc23)c1 [Compound 1158] | 1000 to 10000
O=[N+]([O-])c1ccccc1-c1ccc2nc(-c3cccnc3)nc(Nc3ccc(F)c(Cl)c3)c2c1 [Compound 640] | 1000 to 10000
Cc1cccc2c(Nc3ccc(F)c(Cl)c3)nc(-c3cnccn3)nc12 [Compound 1176] | 1000 to 10000
CN(C)C(=O)COc1ccc2nc(-c3cccnc3)nc(Oc3ccc(F)c(Cl)c3)c2c1 [Compound 846] | 1000 to 10000
COc1ccc2nc(-c3cccnc3)nc(Nc3ccc4ccc(=O)oc4c3)c2c1 [Compound 330] | 1000 to 10000
CCOc1ccc2nc(-c3cccnc3)nc(Nc3ccccc3C(N)=O)c2c1 [Compound 73] | 1000 to 10000
Fc1ccc(Nc2nc(-c3ccnnc3)nc3cc(Cl)ccc23)cc1Cl [Compound 1201] | 1000 to 10000
COc1ccc2nc(-c3cnccn3)nc(Nc3cccc(C#N)c3)c2c1 [Compound 1193] | 1000 to 10000
COc1ccc2nc(-c3cccnc3)nc(Nc3nc(-c4ccc(C#N)cc4)cs3)c2c1 [Compound 448] | < 1000
CNc1nc(-c2cccnc2)nc2ccc(-c3cccc(-c4ccccc4)c3)cc12 [Compound 1346] | 1000 to 10000

SMILES | IC50 [nM]
Fc1ccccc1-c1ccc2c(NCc3ccccn3)nc(-c3cccnc3)nc2c1 [Compound 1425] | 1000 to 10000
NC(=O)c1ccccc1Nc1nc(-c2cccnc2)nc2cc(-c3ccc(F)cc3F)ccc12 [Compound 704] | < 1000
COc1ccc2nc(-c3cccnc3)nc(Nc3ccccc3C(=O)NC(C)c3ccc(C(F)(F)F)cc3)c2c1 (stereo not drawn) [Compound 889] | 1000 to 10000
N#Cc1cccc(-c2ccc3nc(-c4cccnc4)nc(Nc4ccc(F)c(Cl)c4)c3c2)c1 [Compound 633] | 1000 to 10000
COc1ccc(Cl)c(Nc2nc(-c3cccnc3)nc3ccc(OC)cc23)c1 [Compound 932] | 1000 to 10000
COc1ccc2nc(-c3cccnc3)nc(Nc3ccc4c(c3)OCCO4)c2c1 [Compound 297] | > 10000
COCCN(C)c1nc(-c2cccnc2)nc2ccc(-c3cccc(F)c3F)cc12 [Compound 1391] | > 10000
COc1ccc2nc(-c3ccnnc3)nc(Nc3cccc(C#N)c3)c2c1 [Compound 1187] | < 1000
COc1ccc2nc(-c3cccnc3)nc(Nc3nnc(-c4ccc(Cl)cc4)s3)c2c1 [Compound 412] | < 1000
COc1ccc2nc(-c3cccnc3)nc(Nc3cccc4c3OC(F)(F)C(F)(F)O4)c2c1 [Compound 342] | 1000 to 10000
COc1cccc(-c2ccc3nc(-c4cccnc4)nc(Oc4ccc(F)c(Cl)c4)c3c2)c1 [Compound 390] | 1000 to 10000
CCOc1ccc2nc(-c3cccnc3)nc(Nc3ccc4c(c3)NC(=O)CO4)c2c1 [Compound 336] | < 1000
CCOc1ccc2nc(-c3cccnc3)nc(Nc3nc(-c4ccc(Cl)cc4)cs3)c2c1 [Compound 467] | 1000 to 10000
COc1ccc2nc(-c3cccnc3)nc(Nc3nc(-c4ccccc4)c(C)s3)c2c1 [Compound 456] | < 1000
CCOc1ccc2nc(-c3cccnc3)nc(Nc3ccc4ccc(=O)[nH]c4c3)c2c1 [Compound 335] | < 1000
O=c1ccc2ccc(Nc3nc(-c4cccnc4)nc4ccc(-c5cccnc5)cc34)cc2[nH]1 [Compound 352] | 1000 to 10000
COc1ccc2nc(-c3cccnc3)nc(Nc3ccc4ccn(C)c4c3)c2c1 [Compound 303] | 1000 to 10000
COc1ccc2nc(-c3cccnc3)nc(Nc3cccc4c3OC(F)(F)O4)c2c1 [Compound 339] | 1000 to 10000
COc1ccc2nc(-c3cccnc3)nc(Nc3cccc4cc[nH]c34)c2c1 [Compound 300] | > 10000
Clc1ccc2c(Nc3ccc(Cl)c(Cl)c3)nc(-c3cnccn3)nc2c1 [Compound 1140] | < 1000
COc1ccc2nc(-c3cccnc3)nc(Nc3ccc4sc(=O)n(C)c4c3)c2c1 [Compound 327] | 1000 to 10000
CN(C)c1cccc(-c2ccc3c(Nc4ccc(F)c(Cl)c4)nc(-c4cccnc4)nc3c2)c1 [Compound 693] | < 1000
CCOC(=O)c1csc(Nc2nc(-c3cccnc3)nc3ccc(OC)cc23)n1 [Compound 474] | 1000 to 10000
